According to the CheMixHub drug solubility set:

Assay: xn = mol fraction of the nth substance listed, in the solute-free solvent

O=C1C=CC(=O)N1c1ccccc1Br + CC(C)O + O
solubility (g/100 g solution)
Details	278.15 K	283.15 K	288.15 K	293.15 K	298.15 K	303.15 K	308.15 K	313.15 K	318.15 K	323.15 K
x2 = 0.03225	0.488	0.623	0.779	0.978	1.23	1.51	1.84	2.23	2.7	3.25
x2 = 0.06974	0.861	1.08	1.35	1.69	2.09	2.55	3.1	3.77	4.48	5.34
x2 = 0.1139	1.4	1.76	2.18	2.7	3.31	3.97	4.86	5.84	6.97	8.22
x2 = 0.1666	2.08	2.57	3.18	3.87	4.71	5.69	6.76	8.01	9.42	11
x2 = 0.2307	2.9	3.57	4.27	5.21	6.18	7.35	8.51	10.1	11.6	13.5
x2 = 0.3103	3.46	4.18	5.06	6.06	7.2	8.48	9.92	11.5	13.2	15.1
x2 = 0.4117	3.79	4.6	5.54	6.58	7.75	9.12	10.5	12.3	14.1	16.1
x2 = 0.5454	3.85	4.69	5.65	6.75	7.99	9.39	10.8	12.7	14.6	16.7
x2 = 0.7297	3.73	4.58	5.43	6.58	7.83	9.28	10.8	12.5	14.4	16.6

Nc1ncn(C2OC(CO)C(O)C2O)c(=O)n1 (stereo unspecified) + O + CC(C)O
solubility (g/100 g solution)
Details	278.15 K	283.15 K	288.15 K	293.15 K	298.15 K	303.15 K	308.15 K	313.15 K	318.15 K
x2 = 0.4546	0.0657	0.0837	0.104	0.126	0.152	0.187	0.227	0.276	0.336
x2 = 0.6897	0.152	0.192	0.238	0.293	0.351	0.421	0.502	0.601	0.714
x2 = 0.8334	0.275	0.349	0.429	0.516	0.613	0.717	0.851	0.997	1.17
x2 = 0.9303	0.455	0.57	0.693	0.836	0.979	1.14	1.31	1.52	1.75

Nc1cccc2c1CN(C1CCC(=O)NC1=O)C2=O (stereo unspecified) + CC#N + CO
solubility (g/100 g solution)
Details	273.15 K	278.15 K	283.15 K	288.15 K	293.15 K	298.15 K	303.15 K	308.15 K	313.15 K	318.15 K
x2 = 0.1633	0.557	0.585	0.618	0.646	0.686	0.727	0.771	0.821	0.871	0.922
x2 = 0.3423	0.674	0.696	0.729	0.767	0.805	0.849	0.89	0.935	0.98	1.03
x2 = 0.5394	0.771	0.811	0.855	0.901	0.948	0.997	1.05	1.1	1.16	1.22
x2 = 0.7574	0.653	0.682	0.713	0.752	0.794	0.84	0.89	0.942	0.996	1.05
